Data as given in ChEMBL document CHEMBL6134844, “Development of Next-Generation Antimalarial Acridones with Radical Cure Potential” (J Med Chem, 2025).
Active and inactive are the calls of the source. No cut-off for these calls is given here.

Tests used:
Plasmodium falciparum [1] = assay: Antiplasmodial activity against asexual blood-stage (ABS) CQ-sensitive Plasmodium falciparum D6 infected in human erythrocytes assessed as reduction in fluorescence measured after 72 hrs by Malaria SYBR Green I-based Fluorescence (MSF) assay; type: functional, organism-based; conditions: D6, Erythrocyte
Plasmodium falciparum [2] = assay: Antiplasmodial activity against asexual blood-stage (ABS) MDR Plasmodium falciparum Dd2 infected in human erythrocytes assessed as reduction in fluorescence measured after 72 hrs by Malaria SYBR Green I-based Fluorescence (MSF) assay; type: functional, organism-based; conditions: Dd2, Erythrocyte
Plasmodium falciparum [3] = assay: Antiplasmodial activity against asexual blood-stage (ABS) ATV-resistant clinical isolate Plasmodium falciparum Tm90-C2B infected in human erythrocytes assessed as reduction in fluorescence measured after 72 hrs by Malaria SYBR Green I-based Fluorescence (MSF) assay; type: functional, organism-based; conditions: Erythrocyte
HepG2 = assay: Cytotoxicity against human HepG2 cells assessed as cell viability measured after 48 hrs by MTT assay; type: functional, cell-based; conditions: HepG2, 48 h
Plasmodium cynomolgi [4] = assay: (§1) Antiplasmodial activity against hypnozoite Plasmodium cynomolgi B strain infected in Macaca mulatta hepatocytes incubated with sporozoite containing salivary gland homogenate obtained from dissected Anopheles dirus mosquitoes (infected with Plasmodium cynomolgi B strain) treatment started on day 4 post infection and continued daily for 4 days into fresh changed media until day 8 assessed as Liver stage (LS) activity by measuring prophylactic mode by immunofluorescent staining analysis; type: functional, organism-based; conditions: Hepatocyte
Plasmodium cynomolgi [5] = assay: as §1, with “schizont” for “hypnozoite”; type: functional, organism-based; conditions: Hepatocyte
Plasmodium cynomolgi [6] = assay: as §1, with “radical cure” for “prophylactic”; type: functional, organism-based; conditions: Hepatocyte
Plasmodium cynomolgi [7] = assay: as §1, with “schizont” for “hypnozoite”, “radical cure” for “prophylactic”; type: functional, organism-based; conditions: Hepatocyte
[8] = as §1, with “Selectivity index, ratio of CC50 for Macaca mulatta hepatocytes to IC50 for antiplasmodial” for “Antiplasmodial”; type: toxicity, cell-based; conditions: rhesus monkey, read-out: Selectivity Index
[9] = as §1, with “Selectivity index, ratio of CC50 for Macaca mulatta hepatocytes to IC50 for antiplasmodial” for “Antiplasmodial”, “schizont” for “hypnozoite”; type: toxicity, cell-based; conditions: rhesus monkey, read-out: Selectivity Index
Plasmodium yoelii [10] = assay: In vivo antiplasmodial activity against asexual blood-stage (ABS) Plasmodium yoelii MRA-428 infected in 4-day suppression CF1 mouse model assessed as reduction in parasitemia treated 24 hrs post infection daily measured on day 4; type: functional
Plasmodium yoelii [11] = assay: In vivo antiplasmodial activity against asexual blood-stage (ABS) Plasmodium yoelii MRA-428 infected in 4-day suppression CF1 mouse model assessed as reduction in parasitemia by measuring cured mouse at 80 mg/kg, po treated 24 hrs post infection daily for 4 days; type: functional, organism-based
[12] = Toxicity in CF1 mouse infected with asexual blood-stage (ABS) Plasmodium yoelii MRA-428 assessed as clinical toxicity at 0.3 to 30 mg/kg, po treated 24 hrs post infection measured after 4 days; type: organism-based; conditions: in vivo, dose 0.3-30 mg/kg
[13] = Toxicity in CF1 mouse infected with asexual blood-stage (ABS) Plasmodium yoelii MRA-428 assessed as behavioural change at 0.3 to 30 mg/kg, po treated 24 hrs post infection measured after 4 days; type: organism-based; conditions: in vivo, dose 0.3-30 mg/kg
Hepatocyte = assay: (§2) Cytotoxicity against Macaca mulatta hepatocytes assessed as cell viability measured after 48 hrs by MTT assay; type: toxicity, cell-based; conditions: rhesus monkey, 48 h
[14] = mouse, microsomes, 1 h
[15] = as §1, with “Selectivity index, ratio of CC50 for Macaca mulatta hepatocytes to IC50 for antiplasmodial” for “Antiplasmodial”, “radical cure” for “prophylactic”; type: toxicity, cell-based; conditions: rhesus monkey, read-out: Selectivity Index
[16] = as §1, with “Selectivity index, ratio of CC50 for Macaca mulatta hepatocytes to IC50 for antiplasmodial” for “Antiplasmodial”, “schizont” for “hypnozoite”, “radical cure” for “prophylactic”; type: toxicity, cell-based; conditions: rhesus monkey, read-out: Selectivity Index
[17] = Cmax in male ICR-CD1 mouse liver at 80 mg/kg, po; type: ADME, organism-based
[18] = Tmax in male ICR-CD1 mouse plasma at 80 mg/kg, po; type: ADME, organism-based
[19] = Half life in male ICR-CD1 mouse liver at 80 mg/kg, po; type: ADME, organism-based
[20] = AUClast in male ICR-CD1 mouse liver at 80 mg/kg, po; type: ADME, organism-based
[21] = AUCextrap in male ICR-CD1 mouse liver at 80 mg/kg, po; type: ADME, organism-based
[22] = AUCextrap in male ICR-CD1 mouse plasma at 80 mg/kg, po; type: ADME, organism-based
[23] = AUC(0 to infinity) in male ICR-CD1 mouse liver at 80 mg/kg, po; type: ADME, organism-based
[24] = Apparent oral clearance in male ICR-CD1 mouse liver at 80 mg/kg, po; type: ADME, organism-based
Plasmodium berghei [25] = assay: In vivo antiplasmodial activity against luciferase expressing liver stage Plasmodium berghei ANKA MRA-868 sporozoites infected in Albino C57BL/6 mouse model assessed as protection at 4 mg/kg, po daily measured 24 to 72 hrs by real-time In Vivo Imaging System (IVIS); type: functional, organism-based; conditions: time lower 24.0 hrs, time upper […]
Plasmodium berghei [26] = assay: In vivo antiplasmodial activity against luciferase expressing liver stage Plasmodium berghei ANKA MRA-868 sporozoites infected in Albino C57BL/6 mouse model assessed as protection at 10 mg/kg, po daily measured 24 to 72 hrs by real-time In Vivo Imaging System (IVIS); type: functional; conditions: time lower 24.0 hrs, time upper […]
Plasmodium falciparum [27] = assay: Ex vivo antiplasmodial activity against clinical isolate Plasmodium falciparum isolated from Ugandan measured after 72 hrs by growth inhibition assay; type: functional, organism-based
[28] = human, microsomes, 1 h
Plasmodium yoelii [29] = assay: In vivo antiplasmodial activity against asexual blood-stage (ABS) Plasmodium yoelii MRA-428 infected in 4-day suppression CF1 mouse model assessed as reduction in parasitemia by measuring protection at 10 mg/kg, po treated 24 hrs post infection daily for 4 days relative to control; type: functional; set-up: scale not given: the % may be the effect or the level left
Plasmodium yoelii [30] = assay: In vivo antiplasmodial activity against asexual blood-stage (ABS) Plasmodium yoelii MRA-428 infected in 4-day suppression CF1 mouse model assessed as reduction in parasitemia by measuring cured mouse at 60 mg/kg, po single dose treated 24 hrs post infection; type: functional, organism-based
Plasmodium yoelii [31] = assay: In vivo antiplasmodial activity against asexual blood-stage (ABS) Plasmodium yoelii MRA-428 infected in 4-day suppression CF1 mouse model assessed as reduction in parasitemia by measuring cured mouse at 100 mg/kg, po single dose treated 24 hrs post infection; type: functional, organism-based
Plasmodium yoelii [32] = assay: In vivo antiplasmodial activity against asexual blood-stage (ABS) Plasmodium yoelii MRA-428 infected in 4-day suppression CF1 mouse model assessed as reduction in parasitemia by measuring protection at 30 mg/kg, po treated 24 hrs post infection daily measured up to 28 days; type: functional, organism-based; conditions: time <= 28.0 day
Plasmodium yoelii [33] = assay: In vivo antiplasmodial activity against asexual blood-stage (ABS) Plasmodium yoelii MRA-428 infected in 4-day suppression CF1 mouse model assessed as reduction in parasitemia by measuring cured mouse at 100 mg/kg, po treated 24 hrs post infection daily for 4 days; type: functional, organism-based
[34] = as §2; type: toxicity, cell-based, Hepatocyte; conditions: rhesus monkey
in vitro = conditions: human, liver microsomes

SMILES | IC50 (Plasmodium falciparum [1]) [nM] | IC50 (Plasmodium falciparum [2]) [nM] | IC50 (Plasmodium falciparum [3]) [nM] | IC50 (HepG2) [nM] | IC50 (Plasmodium cynomolgi [4]) [nM] | IC50 (Plasmodium cynomolgi [5]) [nM] | IC50 (Plasmodium cynomolgi [6]) [nM] | IC50 (Plasmodium cynomolgi [7]) [nM] | selectivity ratio at 96 h [8] | selectivity ratio at 96 h [9] | ED90 (Plasmodium yoelii [10]) [mg/kg] | Activity [12] | Activity [13] | CC50 (Hepatocyte) [nM] | CLH [14] [µL/min/mg] | selectivity ratio at 96 h [15] | selectivity ratio at 96 h [16] | ED50 (Plasmodium yoelii [10]) [mg/kg] | t1/2 [28] [h] | CC50 at 48 h [34] [nM] | also measured
O=c1c2cc(Oc3ccc(OC(F)(F)F)cc3)ccc2[nH]c2cc(Cl)cc(F)c12 | 4.18 | 4.27 | 599 | > 200000 | 330 | 30 | > 20000 | > 20000 | > 60.6 | > 667 | 1.98 | Non-toxic | Non-toxic | > 20000 | 45.4 | – | – | – | – | – | Activity (Plasmodium yoelii [11]): Active
O=c1c2cc(F)c(Oc3ccc(OC(F)(F)F)cc3)cc2[nH]c2cc(Cl)cc(F)c12 | 0.00074 | 0.00042 | 0.475 | > 200000 | 160 | 40 | 560 | 340 | 3.62 | 14.5 | 0.3 | Non-toxic | Non-toxic | 580 | 16.1 | 1.04 | 1.71 | 0.16 | > 1 | – | Cmax [17]: 7980 ng/mL; Tmax [18]: 4 h; half-life [19]: 20.9 h; AUC(0-t) [20]: 40000 ng·h/mL; AUC [21]: 3.14%; AUC [22]: 64.6 ng·h/mL; AUC(0-inf) [23]: 41300 ng·h/mL; CL/F [24]: 1.05 mL/min/kg; Activity (Plasmodium berghei [25]): Not active; Out Of 5 - 0 Mouse Cured; Activity (Plasmodium berghei [26]): Not active; Out Of 5 - 0 Mouse Cured; IC50 (Plasmodium falciparum [27]): 0.957 nM
O=c1c2ccc(Oc3ccc(OC(F)(F)F)cc3)cc2[nH]c2ccc(F)c(Cl)c12 | 1.03 | 0.84 | 52.8 | > 200000 | 530 | 80 | 6750 | 3450 | 16.7 | 111 | 0.33 | Non-toxic | Non-toxic | 8870 | 11.6 | 1.31 | 2.57 | 0.29 | > 1 | – | Activity (Plasmodium yoelii [29]): 100%; Activity (Plasmodium yoelii [30]): Active; Activity (Plasmodium yoelii [31]): Active
O=c1c2ccc(OCc3cccc(OC(F)(F)F)c3)cc2[nH]c2cc(Cl)cc(F)c12 | 0.077 | 0.01 | 0.977 | > 200000 | 250 | 20 | 710 | 620 | 12.6 | 165 | – | Non-toxic | Non-toxic | 3310 | 57.4 | 4.66 | 5.34 | – | > 1 | – | Activity (Plasmodium yoelii [32]): Active; Out Of 4 - 3 Mouse Cured; Activity (Plasmodium yoelii [33]): Active
O=c1c2ccc(Oc3cccc(C(F)(F)F)c3)cc2[nH]c2cc(F)c(Cl)cc12 | 5.19 | 3.87 | 59.4 | > 200000 | 1390 | 360 | > 20000 | > 20000 | > 14.4 | > 55.6 | – | – | – | – | 14.2 | – | – | – | – | > 20000 | half-life at 1 h (in vitro): > 1 h
O=c1c2ccc(Oc3cccc(OC(F)(F)F)c3)cc2[nH]c2cc(F)c(Cl)cc12 | 3.57 | 3.15 | 61.2 | > 200000 | 870 | 120 | > 20000 | > 20000 | > 23 | > 167 | – | – | – | – | < 3.125 | – | – | – | – | > 20000 | half-life at 1 h (in vitro): > 1 h
